Literature values in US5385885A, “Inhibition of smooth muscle cell proliferation by antistasin and tick anticoagulant peptide” (priority 1991, dated 1995).

Key:
[1] = system: smooth muscle cell proliferative response to balloon catheter injury; settings: rat model; Powell et al.; cited from earlier work
[2] = system: smooth muscle cells of rat carotid arteries; settings: site-delivered; after balloon catheterization; Edelman et al.; cited from earlier work

Question: With `CCOC(=O)[C@H](CCc1ccccc1)N[C@H]1CCCN2CCC[C@@H](C(=O)O)N2C1=O` [cilazapril] as the compound, how does the “Smooth muscle cell proliferative response to balloon catheter injury” value [1] read?
Answer: specifically inhibits

Question: For heparin, which “Proliferation of smooth muscle cells” value [2] is on record?
Answer: effectively diminished
